# Measured values from ChEMBL document CHEMBL4680277, “Targeting Metabolism of Extracellular Nucleotides via Inhibition of Ectonucleotidases CD73 and CD39” (J Med Chem, 2020).
# Legend:
# [1] = target: T1, Ectonucleoside triphosphate diphosphohydrolase 3 (Homo sapiens, UniProt O75355); test: Competitive inhibition of human NTPDase3 using ATP as substrate preincubated for 3 mins followed by substrate addition and measured after 15 mins by Dixon and Cornish-Bowden plot analysis
# T1 sequence (O75355 whole entry): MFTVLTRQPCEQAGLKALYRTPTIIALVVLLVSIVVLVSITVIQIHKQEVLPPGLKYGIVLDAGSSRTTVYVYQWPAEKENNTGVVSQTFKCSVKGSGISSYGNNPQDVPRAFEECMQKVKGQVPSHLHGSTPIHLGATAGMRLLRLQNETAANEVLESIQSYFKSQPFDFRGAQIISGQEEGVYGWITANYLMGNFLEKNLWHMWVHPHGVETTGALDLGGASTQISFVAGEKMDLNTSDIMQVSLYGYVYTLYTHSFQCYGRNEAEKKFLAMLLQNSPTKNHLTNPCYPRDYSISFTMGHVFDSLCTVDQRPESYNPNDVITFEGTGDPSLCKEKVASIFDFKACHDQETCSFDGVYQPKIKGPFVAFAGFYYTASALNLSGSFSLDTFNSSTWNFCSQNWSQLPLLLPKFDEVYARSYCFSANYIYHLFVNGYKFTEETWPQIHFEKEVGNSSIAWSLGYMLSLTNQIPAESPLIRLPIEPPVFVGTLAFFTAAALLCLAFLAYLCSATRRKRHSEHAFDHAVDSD
# [2] = Inhibition of rat NTPDase3 expressed in CHO cells using ATP as substrate incubated for 10 mins by UV absorbance method; assay type: cell-based
# [3] = target: T2, Ectonucleoside triphosphate diphosphohydrolase 1 (Rattus norvegicus, UniProt P97687); test: Inhibition of rat CD39 expressed in CHO cells using ATP as substrate incubated for 10 mins by UV absorbance method; assay type: cell-based; details: cho
# T2 sequence (P97687 whole entry): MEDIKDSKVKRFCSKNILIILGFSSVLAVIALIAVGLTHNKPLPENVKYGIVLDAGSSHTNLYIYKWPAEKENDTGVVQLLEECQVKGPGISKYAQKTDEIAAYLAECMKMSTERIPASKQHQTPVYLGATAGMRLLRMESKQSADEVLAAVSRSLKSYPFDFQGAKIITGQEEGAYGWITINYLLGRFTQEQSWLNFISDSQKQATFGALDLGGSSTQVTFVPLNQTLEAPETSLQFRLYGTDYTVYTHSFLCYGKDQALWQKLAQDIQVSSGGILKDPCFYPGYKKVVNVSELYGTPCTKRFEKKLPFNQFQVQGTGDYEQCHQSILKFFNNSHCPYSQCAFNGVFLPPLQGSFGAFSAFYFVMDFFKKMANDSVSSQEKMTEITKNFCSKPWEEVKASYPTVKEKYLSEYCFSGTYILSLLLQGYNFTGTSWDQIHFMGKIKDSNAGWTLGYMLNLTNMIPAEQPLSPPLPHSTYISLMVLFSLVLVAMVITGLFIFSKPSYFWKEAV
# [4] = Selectivity ratio of Ki for rat NTPDase3 expressed in CHO cells to Ki for rat CD39 expressed in CHO cells
# [5] = target: T3, Ectonucleoside triphosphate diphosphohydrolase 2 (Rattus norvegicus, UniProt O35795); test: Inhibition of rat NTPDase2 expressed in CHO cells using ATP as substrate incubated for 10 mins by UV absorbance method; assay type: cell-based; details: cho
# T3 sequence (O35795 whole entry): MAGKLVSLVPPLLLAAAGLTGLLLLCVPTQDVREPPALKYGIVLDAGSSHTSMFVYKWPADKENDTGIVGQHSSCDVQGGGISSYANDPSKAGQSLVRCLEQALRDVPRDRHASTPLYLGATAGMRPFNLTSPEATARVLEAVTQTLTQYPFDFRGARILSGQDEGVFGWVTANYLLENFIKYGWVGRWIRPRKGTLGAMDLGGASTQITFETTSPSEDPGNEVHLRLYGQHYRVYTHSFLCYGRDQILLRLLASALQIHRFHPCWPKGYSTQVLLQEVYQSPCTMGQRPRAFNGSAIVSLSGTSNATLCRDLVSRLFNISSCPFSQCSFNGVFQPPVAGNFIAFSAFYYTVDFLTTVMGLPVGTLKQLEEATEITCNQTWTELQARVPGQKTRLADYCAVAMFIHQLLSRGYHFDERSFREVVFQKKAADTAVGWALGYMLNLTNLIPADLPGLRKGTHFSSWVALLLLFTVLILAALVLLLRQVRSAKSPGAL
# [6] = Selectivity ratio of Ki for rat NTPDase2 expressed in CHO cells to Ki for rat CD39 expressed in CHO cells
# [7] = target: T4, Ectonucleoside triphosphate diphosphohydrolase 1 (Mus musculus, UniProt P55772); test: Inhibition of mouse CD39 expressed in green monkey Cos-7 cells using ATP as substrate preincubated for 3 mins followed by substrate addition by malachite green reagent based assay; assay type: cell-based
# T4 sequence (P55772 whole entry): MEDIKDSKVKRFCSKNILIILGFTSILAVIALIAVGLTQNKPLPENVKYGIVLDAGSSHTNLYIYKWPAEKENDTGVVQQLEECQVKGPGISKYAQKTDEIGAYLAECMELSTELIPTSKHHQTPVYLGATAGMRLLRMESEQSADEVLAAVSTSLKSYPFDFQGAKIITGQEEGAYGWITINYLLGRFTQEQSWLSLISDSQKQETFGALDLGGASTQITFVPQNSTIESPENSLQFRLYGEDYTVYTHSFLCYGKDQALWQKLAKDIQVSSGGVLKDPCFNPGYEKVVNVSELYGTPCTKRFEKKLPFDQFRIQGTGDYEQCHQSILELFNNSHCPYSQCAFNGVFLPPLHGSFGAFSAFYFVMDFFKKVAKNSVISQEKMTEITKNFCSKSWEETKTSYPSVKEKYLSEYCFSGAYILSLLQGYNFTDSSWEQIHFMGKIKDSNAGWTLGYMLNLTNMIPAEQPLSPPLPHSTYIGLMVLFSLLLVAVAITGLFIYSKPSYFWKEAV
# [8] = target: T5, Ectonucleoside triphosphate diphosphohydrolase 8 (Homo sapiens, UniProt Q5MY95); test: Inhibition of human NTPDase8 expressed in green monkey Cos-7 cells using ATP as substrate preincubated for 3 mins followed by substrate addition by malachite green reagent based assay; assay type: cell-based
# T5 sequence (Q5MY95 whole entry): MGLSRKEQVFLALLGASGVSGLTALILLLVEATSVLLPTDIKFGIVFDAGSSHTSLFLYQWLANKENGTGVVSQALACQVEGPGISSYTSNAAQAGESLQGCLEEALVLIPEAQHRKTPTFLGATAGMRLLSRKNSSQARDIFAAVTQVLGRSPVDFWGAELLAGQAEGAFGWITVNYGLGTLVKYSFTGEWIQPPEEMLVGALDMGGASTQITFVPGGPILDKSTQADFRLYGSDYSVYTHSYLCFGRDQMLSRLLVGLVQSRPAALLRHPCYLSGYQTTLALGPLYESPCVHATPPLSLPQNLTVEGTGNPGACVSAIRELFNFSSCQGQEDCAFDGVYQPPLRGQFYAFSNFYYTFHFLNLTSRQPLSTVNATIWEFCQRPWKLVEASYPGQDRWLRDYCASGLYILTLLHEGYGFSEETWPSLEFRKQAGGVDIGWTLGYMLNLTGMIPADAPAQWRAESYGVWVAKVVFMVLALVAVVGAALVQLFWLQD
structure (smiles),measurement,setting,value
CCN(CC)c1ncnc2c1ncn2[C@@H]1O[C@H](COP(=O)(O)OP(=O)(O)C(Br)(Br)P(=O)(O)O)[C@@H](O)[C@H]1O,Ki,[1],18 µM
Nc1c(S(=O)(=O)[O-])cc(Nc2ccc3ccccc3c2)c2c1C(=O)c1ccccc1C2=O.[Na+],Ki,[2],2.22 µM
same,Ki,[3],0.328 µM
same,Ratio Ki,[4],7
same,Ki,[5],19.1 µM
same,Ratio Ki,[6],58
Cc1ccc(C(=O)Nc2ccc(S(=O)(=O)O)c3cc(S(=O)(=O)O)cc(S(=O)(=O)O)c23)cc1NC(=O)c1cccc(NC(=O)Nc2cccc(C(=O)Nc3cc(C(=O)Nc4ccc(S(=O)(=O)O)c5cc(S(=O)(=O)O)cc(S(=O)(=O)O)c45)ccc3C)c2)c1 [SURAMIN],IC50,[7],> 100 µM
same,IC50,[8],> 100 µM
